According to US20030153538A1, “Antitumor agent” (The Nisshin OilliO, Ltd., priority 2000, published 2003):
“Also recorded” adds a separate entry of the source.

Assays:
[1] = test system: B-16 melanoma cells; assay: Tests for tumor cell-proliferation-inhibitory effect and tumor cell-extinction (cell growth rate from viable cell count); type: cell-based
Experimental: The tumor cell-proliferation-inhibitory effect and the tumor cell-killing or extinction effect can be determined according to the following method using B-16 melanoma cells.
More specifically, B-16 melanoma cells are inoculated in each well of a 6-well plate in a desired amount, followed by allowing the plate to stand at 37° C. and 5% carbon dioxide concentration to thus cultivate the cells, adding a sample solution to be tested (maslinic acid, erythrodiol, ursolic acid, uvaol, betulinic acid, betulin and physiologically acceptable salts thereof or derivatives thereof) to each well in an amount sufficient for achieving a desired concentration, on the next day or after 5 days from the initiation of the cultivation, determination of viable cell count on the 6th day after the initiation of the cultivation and calculation of the cell growth rate based on the viable cell count to thus evaluate the tumor cell-proliferation-inhibitory effect and the tumor cell-killing effect.
Tests for determining the tumor cell-proliferation-inhibitory effect and the tumor cell-killing effect were conducted according to the following method. To a 6-well plate, a culture medium was dispensed in an amount of 2 mL/well, B-16 melanoma cells were then inoculated in a desired quantity and thereafter the melanoma cells were cultivated by allowing the plate or the culture medium to stand at 37° C. and a carbon dioxide concentration of 5%. On the following day, a test sample solution prepared was added to and admixed with the content of each well to a desired concentration and the cultivation of the melanoma cells was continued. The culture medium was then exchanged on the 5th day from the initiation of the cultivation and the test sample solution was again added to each well. On the next day, the culture medium was removed to recover the cultivated melanoma cells, followed by washing the cells with PBS (phosphate buffered saline), determination of the viable cell count, and then calculation of the cell growth rate according to the following equation 1. The tumor cell-proliferation-inhibitory effect and the tumor cell-killing effect of each test sample were evaluated on the basis of the cell growth rate thus determined.
Cell Growth Rate (%)=(A/B)×100
As comparative examples, oleanolic acid, β-amyrin, α-amyrin and lupeol were added to the culture medium to thus determine and evaluate the cell growth rate by the same method used above.

[2] = test system: B16 melanoma cells; assay: Test for malignant melanoma metastasis-inhibitory effect (lung metastasis after i.v. injection of B16 melanoma cells); type: in vivo, Whister female rats; details: rats; for RMI (rate of metastasis-inhibition): Oral Adm., every other day, lung lesions on 15th day
Experimental: The tumor cell-metastasis-inhibitory effect can be evaluated according to, for instance, the malignant melanoma metastasis-inhibitory test. More specifically, a suspension of B16 melanoma cells prepared in advance is intravenously injected into Whister female rats, cotton seed oil in which each test substance is dissolved in a predetermined concentration is intraperitoneally administered through injection or orally administered using a sonde, every second day starting from 2nd day after the intravenous injection of the suspension. In this connection, only cotton seed oil is administered to the control group of animals. The lungs are extracted from these animals on the 15th day after the injection of the B16 melanoma cells, the lungs are examined to determine the number of cancer lesions thus metastasized to thus calculate the rate of metastasis-inhibition. The tumor cell-metastasis-inhibitory effect of each test sample is evaluated on the basis of the resulting rate of metastasis-inhibition.
Tests for evaluating the malignant melanoma metastasis-inhibitory effect of each test sample were conducted according to the following method. Whister female rats (6-week-old; average body weight: 160 g) were preliminarily bred with a powdery feed preparation having a composition of AIN-93 for one week, these animals were divided into 5 groups (8 animals per group) so as to equalize the average body weight and then a previously prepared suspension of B16 melanoma cells was intravenously injected into each rat. Subsequently, these animals were bred with a powdery feed preparation having a composition of AIN-93 and cotton seed oil in which each of maslinic acid, erythrodiol, ursolic acid, uvaol, betulinic acid, betulin, compounds of Synthetic Examples 1 and 2, or oleanolic acid had been dissolved in a predetermined concentration was intraperitoneally injected into each animal or orally administered thereto using a sonde, every other day starting from the 2nd day after the injection of the B 16 melanoma cells. In this connection, only cotton seed oil was administered to the control group. On the 15th day after the injection of the B 16 melanoma cells, the lung of each animal was taken out, the lungs were examined to determine the number of cancer lesions thus metastasized and to thus calculate the rate of metastasis-inhibition in accordance with the following equation 2. The tumor cell-metastasis-inhibitory effect of each test sample could be evaluated on the basis of the resulting rate of metastasis-inhibition.
Rate of Metastasis-Inhibition (%)=[(D−C)/D]×100
Wherein C: Average number of cancer lesions metastasized observed in each animal group; and D: average number of cancer lesions metastasized observed in the control group.
Maslinic acid, erythrodiol, ursolic acid, uvaol, betulinic acid, betulin and physiologically acceptable salts thereof or derivatives thereof as well as cotton seed oil as the control were inspected for the rate of metastasis-inhibition (RMI) using the dose and administration methods specified in the following Table 2. In addition, the same procedures used above were repeated except for using oleanolic acid as a comparative sample to thus evaluate the rate of metastasis-inhibition (RMI) thereof.

| SMILES | Cell Growth Rate ([1]; 5 ppm, viable cell count vs control on 6th day) [%] | Cell Growth Rate ([1]; 10 ppm, viable cell count vs control on 6th day) [%] | Cell Growth Rate ([1]; 15 ppm, viable cell count vs control on 6th day) [%] | Cell Growth Rate ([1]; 20 ppm, viable cell count vs control on 6th day) [%] | Cell Growth Rate ([1]; 25 ppm, viable cell count vs control on 6th day) [%] | RMI (rate of metastasis-inhibition) ([2]; 100 mg/body wt. (kg)) [%] | activity at 15 ppm ([1]; Mus musculus, B16, 144 h, 15 ppm, viable cell count vs control on 6th day, read-out: Cell Growth Rate) [%] | activity at 20 ppm ([1]; Mus musculus, B16, 144 h, 20 ppm, viable cell count vs control on 6th day, read-out: Cell Growth Rate) [%] | activity at 25 ppm ([1]; Mus musculus, B16, 144 h, 25 ppm, viable cell count vs control on 6th day, read-out: Cell Growth Rate) [%] | activity at 30 ppm ([1]; Mus musculus, B16, 144 h, 30 ppm, viable cell count vs control on 6th day) [%] | activity at 40 ppm ([1]; Mus musculus, B16, 144 h, 40 ppm, viable cell count vs control on 6th day) [%] | activity at 50 ppm ([1]; Mus musculus, B16, 144 h, 50 ppm, viable cell count vs control on 6th day) [%] | tumor cell-killing effect (in words) ([1]; at not less than 2 times the concentration required for proliferation inhibition) | tumor cell-proliferation-inhibitory effect (in words) ([1]; summary of Table 1) | tumor cell-proliferation-inhibitory effect (in words) ([1]; summary of Table 1, listed as oleanolic acid) | RMI (rate of metastasis-inhibition) ([2]; 300 mg/body wt. (kg)) [%] | tumor cell-metastasis-inhibitory effect compared with the control group (in words) ([2]; metastasis of cancer to lung, summary of Table 2) |
| --- | --- | --- | --- | --- | --- | --- | --- | --- | --- | --- | --- | --- | --- | --- | --- | --- | --- |
| CC(=O)O[C@@H]1C[C@]2(C)[C@H]3CC=C4[C@@H]5CC(C)(C)CC[C@]5(C(=O)O)CC[C@@]4(C)[C@]3(C)CC[C@H]2C(C)(C)[C@H]1OC(C)=O [Comp. Of Synthetic Ex. 2, 2,3-O-di-acetyl-maslinic acid] | 89 | 63 | 34 | 4 | 0 | 74.8 |  |  |  |  |  |  |  |  |  |  |  |
| CC1(C)CC[C@]2(C(=O)O)CC[C@]3(C)C(=CC[C@@H]4[C@@]5(C)CC[C@H](O)C(C)(C)[C@@H]5CC[C@]43C)[C@@H]2C1 [Oleanolic acid, oleanolic acid, reference compound] |  |  |  |  |  |  | 100 | 100 | 100 | 100 | 100 | 94 | not observed | cannot inhibit the proliferation of the B-16 melanoma cells at all | quite weak tumor cell-proliferation-inhibitory effect only at a higher concentration | 9.2 | does not possess any tumor cell-metastasis-inhibitory effect; also recorded: Any significant effect was not observed |
